Source: patent publication US4469848A, “Deodorant product for surface treatment” (priority 1978, dated 1984)

biological target: T1, lipoxidase (ECl.13.1.13) (Glycine max, UniProt P08170); assay: Lipoxidase test: inhibition of lipoxidase-catalysed oxidation of linoleic acid to hydroperoxide (234 nm); assay type: biochemical; conditions: 0.5% by weight solution of material in ethanol as test substrate solvent; pH 9.0 borate buffer
T1 sequence (P08170 1-839): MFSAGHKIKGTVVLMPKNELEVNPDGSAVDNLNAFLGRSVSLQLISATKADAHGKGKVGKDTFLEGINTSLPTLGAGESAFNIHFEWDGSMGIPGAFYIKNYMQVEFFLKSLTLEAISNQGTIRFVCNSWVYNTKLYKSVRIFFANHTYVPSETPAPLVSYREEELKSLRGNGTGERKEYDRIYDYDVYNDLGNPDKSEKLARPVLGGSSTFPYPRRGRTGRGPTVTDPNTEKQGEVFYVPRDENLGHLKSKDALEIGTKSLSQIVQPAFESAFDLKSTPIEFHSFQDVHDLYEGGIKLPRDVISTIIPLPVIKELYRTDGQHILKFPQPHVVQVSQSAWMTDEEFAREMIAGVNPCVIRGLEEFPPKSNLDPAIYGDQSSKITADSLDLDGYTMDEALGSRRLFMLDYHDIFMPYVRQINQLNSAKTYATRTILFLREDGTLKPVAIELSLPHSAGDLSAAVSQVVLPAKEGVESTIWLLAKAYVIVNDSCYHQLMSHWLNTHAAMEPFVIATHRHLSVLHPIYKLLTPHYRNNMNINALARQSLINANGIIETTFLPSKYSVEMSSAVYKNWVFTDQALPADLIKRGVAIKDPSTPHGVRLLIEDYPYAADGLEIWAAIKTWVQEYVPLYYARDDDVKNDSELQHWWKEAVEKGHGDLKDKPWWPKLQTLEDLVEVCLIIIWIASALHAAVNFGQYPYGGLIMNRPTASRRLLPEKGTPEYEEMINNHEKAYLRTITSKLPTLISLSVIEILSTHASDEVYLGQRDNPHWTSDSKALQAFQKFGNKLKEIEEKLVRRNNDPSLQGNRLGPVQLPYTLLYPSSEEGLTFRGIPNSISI

Going from Dimyrcetol to Tetrahydromuguol, the “lipoxidase inhibiting capacity (LIC), % inhibition” value rises from 16% to 24%.

Compared with i-Nonyl acetate, i-Nonyl formate is lower in “lipoxidase inhibiting capacity (LIC), % inhibition” value: 50% for the first, 19% for the second.

tested on: not listed separately; assay: Morpholine test: depression of partial vapour pressure of morpholine relative to Raoult's Law (headspace GC); conditions: material 1 g + morpholine 0.25 g, 37° C., 30 minutes

First: CCCCCCCC1CCCC1=O (stereo not drawn) [2-n-heptylcyclopentanone]
Second: CC1(C)CCCC2(C)C1CCC1(C)OCCC12 (stereo not drawn) [3a-Methyl-dodecahydro-6,6,9a-trimethylnaphtho(2,1-b)furan]
The “Raoult variance ratio (RVR)” value of the first is lower: 1.05 for the first, 1.30 for the second.

Going from `O=C(OCc1ccccc1)c1ccccc1O` [Benzyl salicylate] to `Cc1ccc(C(C)C)cc1O` [Carvacrol], the “Raoult variance ratio (RVR)” value falls from 1.58 to 1.43.

Going from `O=c1ccc2ccccc2o1` [Coumarin] to `CCOC(=O)c1ccccc1C(=O)OCC` [Diethyl phthalate], the “Raoult variance ratio (RVR)” value falls from 1.22 to 1.20.

Going from `CCOc1cc(C=O)ccc1O` [Ethyl vanillin] to `CCCCCCC(CCOC(C)=O)OC(C)=O` (stereo not drawn) [Nonanediol-1,3-diacetate], the “Raoult variance ratio (RVR)” value falls from 1.43 to 1.17.

First: CCCCCC1CCC(=O)O1 (stereo not drawn) [Nonanolide-1:4]
Second: OCCc1ccccc1 [Phenylether alcohol]
The “Raoult variance ratio (RVR)” value of the first is lower: 0.87 for the first, 1.24 for the second.

Compared with `CC(C)CCOC(=O)c1ccccc1O` [iso-Amyl salicylate], `C/C=C\c1ccc(O)c(OC)c1` [iso-Eugenol] is higher in “Raoult variance ratio (RVR)” value: 1.24 for the first, 1.48 for the second.

Compared with `CC(=O)OC1CCCCC1C(C)(C)C` (stereo not drawn) [o-t-Butylcyclohexyl acetate], `CCC(C)(C)C1CCC(=O)CC1` [p-t-Amyl cyclohexanone] is higher in “Raoult variance ratio (RVR)” value: 1.08 for the first, 1.10 for the second.

First: CC(=O)OC1CCC(C(C)(C)C)CC1 (stereo not drawn) [p-t-Butylcyclohexyl acetate]
Second: CC(=O)c1ccc2ccccc2c1 [β-Methyl naphthyl ketone]
The “Raoult variance ratio (RVR)” value of the first is higher: 0.98 for the first, 0.96 for the second.

Going from Dimyrcetol to Tetrahydromuguol, the “Raoult variance ratio (RVR)” value rises from 1.22 to 1.23.

Going from i-Nonyl acetate to i-Nonyl formate, the “Raoult variance ratio (RVR)” value rises from 0.83 to 1.49.
